In US6117889A, “7-Azabicyclo-[2.2.1]-heptane and -heptene derivatives as analgesics and anti-inflammatory agents” (priority 1996, dated 2000):
Like-named read-outs stand apart in the source and are kept apart here.

Assays:
[1] = tested on: acetylcholine nicotinic receptor; experiment: nicotinic receptor binding, [3H]-NMCI radioligand, rat cortex (Table 5)
Protocol: 7-aza-bicyclo[2.2.1]-heptanes and -heptenes were evaluated for their ability to bind to the acetylcholine nicotinic receptor using a standard binding assay, e.g. X. Zhang and A. Nordberg, Arch. Pharmacol., 348, 28 (1993); R. E. Middleton and J. B. Cohen, Biochemistry, 30, 6987 (1991), with nicotine sulfate as the reference compound, rat cortex as the tissue substrate, and a [^3 H]-NMCI radioligand.

[2] = analgesic activity, Straub-Tail assay (Table 4); format: in vivo
Excerpt: A wide variety of biological assays have been used to evaluate the ability of a compound to act as an analgesic. Any of these known assays can be used to evaluate the analgesic ability of the compounds disclosed herein. The Straub-tail reaction, which is characteristic of opiate alkaloids, has been used as an assay for opiate agonists and antagonists. The assay is described in detail in Br. J. of Pharmacol. 1969, 36, 225. Another accepted assay for analgesic activity is the hot plate analgesia assay, described in J. of Pharmacol. Exp. Therap. 1953, 107, 385. An assay for the evaluation of the ability of a compound to bind to an opiate receptor is described in Mol. Pharmacol. 1974, 10, 868.
[…] Daly et al. J. Am. […] Chem. Soc. 1992, 114, 3475; T. Li, et al. Bioorganic and Medicinal Chemistry Letters 1993, 3, 2759.

[3] = Straub-Tail assay, read-out: ED50

Question: For `N=CN1C2CCC1C(c1cccnc1)C2` (stereo not drawn), which Inhibition % ([1]; testing level 10^-9) is on record?
Answer: 5%

Question: With `Clc1ccc([C@@H]2C[C@H]3CC[C@@H]2N3CC2CC2)cn1` (relative stereo) as the compound, how does the “analgesic activity (Straub-Tail), % at 1000 μg/Kg” value ([2]; @ 1000 (μg/Kg)) read?
Answer: 100%

Question: For `COc1ccc([C@@H]2C[C@H]3CC[C@@H]2N3)cn1` (relative stereo), which ED50 [2, 3] is on record?
Answer: 0.75 mg/kg

Question: What does the source list for `C[N+]1(C)C2CCC1C(c1ccc(Cl)nc1)C2` (stereo not drawn)?
Answer: Inhibition % ([1]; testing level 10^-7 M): 100%; Inhibition % ([1]; testing level 10^-9): 49%

Question: Which results are given for `N=CN1C2CCC1C(c1ccc(Cl)nc1)C2` (stereo not drawn)?
Answer: Inhibition % ([1]; testing level 10^-9): 49%; Inhibition % ([1]; testing level 10^-11): 22%

Question: With `Fc1ccc([C@@H]2C[C@H]3CC[C@@H]2N3)cn1` (relative stereo) as the compound, how does the ED50 [2, 3] read?
Answer: ~0.05 mg/kg

Question: Which ED50 [2] does the source give for `ClCCN1[C@@H]2CC[C@H]1[C@H](c1ccc(Cl)nc1)C2` (relative stereo) here?
Answer: ~0.1 mg/kg

Question: For `N=CN1[C@@H]2CC[C@H]1[C@H](c1ccc(Cl)nc1)C2` (relative stereo), which “analgesic activity (Straub-Tail), % at 100” value ([2]; @ 100) is on record?
Answer: 99%

Question: With `Clc1ccc([C@@H]2C[C@H]3C=C[C@@H]2N3)cn1` (relative stereo) as the compound, how does the ED50 [2, 3] read?
Answer: < 1 mg/kg

Question: Which ED50 [2, 3] does the source give for `c1cncc([C@@H]2C[C@H]3CC[C@@H]2N3)c1` (relative stereo) here?
Answer: 0.25 mg/kg

Question: For `CC(C)(C)Oc1ccc([C@@H]2C[C@H]3CC[C@@H]2N3)cn1` (relative stereo), which ED50 [2, 3] is on record?
Answer: ~1 mg/kg

Question: With `Clc1ccc([C@@H]2C[C@H]3CC[C@@H]2N3)cn1` (relative stereo) as the compound, how does the ED50 ([2]; Straub-Tail assay) read?
Answer: 0.01 mg/kg

Question: With `CN1[C@@H]2CC[C@H]1[C@H](c1ccc(Cl)nc1)C2` (relative stereo) [drawing 33] as the compound, how does the ED50 [2, 3] read?
Answer: < 0.01 mg/kg

Question: With `Clc1ccc([C@@H]2C[C@H]3CC[C@@H]2N3CCc2ccccc2)cn1` (relative stereo) as the compound, how does the ED50 [2, 3] read?
Answer: < 1 mg/kg

Question: With `CN1C2CCC1C(c1ccc(Cl)nc1)C2` (stereo not drawn) [R = CH3] as the compound, how does the Inhibition % ([1]; testing level 10^-5 M) read?
Answer: 81%

Question: Which Inhibition % ([1]; testing level 10^-7 M) does the source give for `Clc1ccc(C2CC3CCC2N3)cn1` (stereo not drawn) [R = H] here?
Answer: 24%
